Patent US20100273656A1, “COMPOSITION AND METHOD FOR SELECTIVE HERBICIDE” (priority 2002, published 2010)

Experiments:
perennial ryegrass [1] = test: Example 17 iron chelates with Killex, perennial ryegrass; type: in vivo
Description: (§1) Plants were fertilized with an all purpose water-soluble fertilizer mix of 20-20-20 (N-P-K; Plant-Prod®) as needed. All broadleaf weeds were grown individually in a 2¼-inch pot until they were a suitable size for herbicide tests (actual weed size is reported in examples below). Perennial ryegrass was also grown in 2¼-inch pots, however many grass seeds were sown in the pot to simulate a small section of turf. Grass plants were continually trimmed to a height of 4 cm, simulating that of a homeowner's lawn. For field tests, plots ¼ m^2 in size were marked out in areas containing the targeted broadleaf weed species growing in turf grass. Plots were continually mowed to simulate a homeowner's lawn. […] In all of the examples, the amounts of the various herbicide components are identified as a percent on a weight basis.
(§2) Killex® (Scotts Canada, Ltd., Ontario, Canada) is a commonly used selective lawn herbicide and was used as the commercial herbicide for herbicide combinations. The labeled dilution and application rates for Killex® are 6 ml into 1 L of solution (0.6%) applied at 200 ml/m^2.
(§3) All visual plant damage assessments were made using a quantitative rating scale; percent control relative to the untreated check (0=no effect; 100=plant death).
Materials and Methods: This trial was conducted in the greenhouse. Nine pots of white clover and 10 pots of perennial ryegrass were selected for each treatment. Herbicidal solutions were prepared using deionized water. The treatments were applied using a handheld trigger sprayer at 200 ml/m^2. All treatments were applied once. Phytotoxicity (%) was assessed 4, 7, and 14 days after application (A4, A7, and A14).

dandelions = test: Example 4 effect of pH on FeHEDTA, greenhouse dandelions; type: in vivo, Taraxacum officinale; settings: for Dead (#/10): 8 + 5 days after spraying
Description: The following non-limiting examples serve to further describe the invention. Unless otherwise specified, all of the iron solutions were made using the same molar concentration of iron ion as chelating agent. All of the outside tests were done on areas of mixed grass and dandelions that were at least 2 months old. For the greenhouse tests, dandelions were grown in a commercial greenhouse mix, using supplemental lighting and heating. Each plant was grown in a 2¼ inch pot to a minimum diameter of 20 cm. All of the solutions were sprayed onto the plants at a rate of 100 ml/m^2. The ferrous sulfate formulations that were used in examples 1, 2, 8 and 9 contained 1% iron (180 mM), 18 mM EDTA, 1% citric acid and 0.5% urea. In all of the examples, the amount of iron is identified in brackets as the percent iron on a weight basis.
All plant damage was assessed using a qualitative rating scale from 0 to 9.
This test compared the effects of FeHEDTA at a range of pH values to potted, greenhouse-grown dandelions. All of the solutions were applied at 0.2% Fe^+3 (35.8 mM). Ammonium sulfate was added at 2%. The plants were re-sprayed after 8 days.

daisy (Bellis perennis) = test: Example 11 field test, daisy in lawn; type: in vivo
Description: Killex® (Green Cross, Ontario, Canada) is a commonly used selective lawn herbicide and was included in several field tests as a standard. Killex contains 2,4-D (9.5%), mecoprop (5%) and dicamba (0.9%). The product was diluted 6 ml into 1 L of water solution and applied at rate of 200 ml/m^2, as per label instructions.
This test investigated the effect of FeHEDTA and a mixture of FeEDDS and FeMGDA on daisy (Bellis perennis), dandelion (Taraxacum officinale) and a turf bentgrass (Agrostis sp.). The chelating agents were used at one and a half times the molar amount of iron. The FeHEDTA solutions contained 0.2% iron (35.8 mM). The commercially prepared FeHEDTA product from the Monterey Chemical Company (CA, USA) was used as a standard. The (FeEDDS+FeMGDA) solutions contained 0.4% iron (71.6 mM) and the same molar amount of EDDS and MGDA. The solutions were made from NaEDDS (Octaquest E30, Octel) and NaMGDA (Trilon M liquid, BASF, Germany). Ammonium sulfate was added at a concentration of 1%. Killex (Solaris ON, Canada) was diluted and applied as per label instructions of 6 ml/L applied at 200 ml/m^2.
The daisy (0.25 m^2) and dandelion (0.5 m^2) test plots were in different areas of the bentgrass field. The dandelions were large, averaging 30 cm in diameter. The daisy patches were between 10 and 20 cm in diameter. The plants were sprayed weekly 4 times.

perennial ryegrass [2] = test: Example 21 Fe chelates with Killex, perennial ryegrass; type: in vivo; settings: A29 = 29 days after treatment
Description: as §1, §2, §3
Materials and Methods: This trial was conducted in the greenhouse. […] Phytotoxicity (%) was assessed 29 days after treatment (A29).

white clover = test: Example 18 FeHEDTA with Killex, white clover; type: in vivo
Description: as §1, §2, §3
Materials and Methods: This trial was conducted in the greenhouse. Nine pots of white clover and 10 pots of perennial ryegrass were selected for each treatment. Herbicide solutions were prepared using deionized water. The treatments were applied using a hand-trigger sprayer at 200 ml/m^2. All treatments were applied once. Phytotoxicity (%) was assessed 4, 7, and 14 days after application (A4, A7, and A14).

broadleaf plantain = test: Example 19 FeHEDTA with Killex at reduced rates, broadleaf plantain; type: in vivo; settings: Killex ® 0%, 7 days after application
Description: as §1, §2, §3
Materials and Methods: This trial was conducted in the greenhouse. Ten broadleaf plantain plants and 5 pots of perennial ryegrass were selected for each treatment. Herbicide solutions were prepared using deionized water. The treatments were applied using a hand-trigger sprayer at 200 ml/m^2. All treatments were applied once. Phytotoxicity (%) was assessed 7 days after application (A7).

Compound: O=C([O-])CN(CCO)CCN(CC(=O)[O-])CC(=O)[O-].[Fe+3] [FeHEDTA]
- Phytotoxicity (%) against perennial ryegrass (perennial ryegrass [1]; A4): 8%
- Phytotoxicity (%) against perennial ryegrass (perennial ryegrass [1]; A7): 7%
- Phytotoxicity (%) against perennial ryegrass (perennial ryegrass [1]; A14): 1%
- Plant Damage (0 to 9) (dandelions; 8 + 5 days after spraying (re-sprayed after 8 days), listed as FeHEDTA pH 3 (0.2% Fe)): 6.8 0 to 9
- Plant Damage (0 to 9) (dandelions; 8 + 5 days after spraying (re-sprayed after 8 days), listed as FeHEDTA pH 5 (0.2% Fe)): 5.4 0 to 9
- Plant Damage (0 to 9) (dandelions; 8 + 5 days after spraying (re-sprayed after 8 days), listed as FeHEDTA pH 7 (0.2% Fe)): 5.1 0 to 9
- Plant Damage (0 to 9) (dandelions; 8 + 5 days after spraying (re-sprayed after 8 days), listed as FeHEDTA pH 9 (0.2% Fe)): 3.6 0 to 9
- Plant Damage (0 to 9) (dandelions; 8 + 5 days after spraying (re-sprayed after 8 days), listed as FeHEDTA pH 11 (0.2% Fe)): 6.6 0 to 9
- Dead (#/10) (dandelions; listed as FeHEDTA pH 3 (0.2% Fe)): 5 #/10
- Dead (#/10) (dandelions; listed as FeHEDTA pH 5 (0.2% Fe)): 3 #/10
- Dead (#/10) (dandelions; listed as FeHEDTA pH 7 (0.2% Fe)): 2 #/10
- Dead (#/10) (dandelions; listed as FeHEDTA pH 9 (0.2% Fe)): 1 #/10
- Dead (#/10) (dandelions; listed as FeHEDTA pH 11 (0.2% Fe)): 5 #/10
- Plant Damage (0 to 9) (dandelions; 7 days after spraying, listed as FeHEDTA pH 3 (0.2% Fe)): 3.2 0 to 9
- Plant Damage (0 to 9) (dandelions; 7 days after spraying, listed as FeHEDTA pH 5 (0.2% Fe)): 2.6 0 to 9
- Plant Damage (0 to 9) (dandelions; 7 days after spraying, listed as FeHEDTA pH 7 (0.2% Fe)): 1.9 0 to 9
- Plant Damage (0 to 9) (dandelions; 7 days after spraying, listed as FeHEDTA pH 9 (0.2% Fe)): 2.0 0 to 9
- Plant Damage (0 to 9) (dandelions; 7 days after spraying, listed as FeHEDTA pH 11 (0.2% Fe)): 3.8 0 to 9
- Plot Area Covered by Daisy Plants (%) (daisy (Bellis perennis); day 0 (start of test)): 60%
- Daisy Necrosis (%) (daisy (Bellis perennis); day 2): 20%
- Daisy Necrosis (%) (daisy (Bellis perennis); day 10): 95%
- Plot Area Covered by Daisy Plants (%) (daisy (Bellis perennis); day 13, sprayed weekly 4 times): 1%
- Daisy Necrosis (%) (daisy (Bellis perennis); day 16): 98%
- Plot Area Covered by Daisy Plants (%) (daisy (Bellis perennis); day 21): 2%
- Daisy Necrosis (%) (daisy (Bellis perennis); day 23): 98%
- Plot Area Covered by Daisy Plants (%) (daisy (Bellis perennis); day 30): 0.5%
- Phytotoxicity (%) on perennial ryegrass (perennial ryegrass [2]): 0%
- Phytotoxicity (%) against white clover (white clover; A4): 27%
- Phytotoxicity (%) against white clover (white clover; A7): 50%
- Phytotoxicity (%) against white clover (white clover; A14): 18%
- A7 Phytotoxicity (%) against broadleaf plantain (broadleaf plantain; listed as FeHEDTA 0.1% Fe): 9%
- A7 Phytotoxicity (%) against broadleaf plantain (broadleaf plantain; listed as FeHEDTA 0.2% Fe): 10%
- A7 Phytotoxicity (%) against broadleaf plantain (broadleaf plantain; listed as FeHEDTA 0.4% Fe): 22%
